PMC8070189, “Native Structure-Based Peptides as Potential Protein–Protein Interaction Inhibitors of SARS-CoV-2 Spike Protein and Human ACE2 Receptor” (Molecules, 2021)

Molecular target: RBD domain of SARS-CoV-2 protein (Severe acute respiratory syndrome coronavirus 2, UniProt P0DTC2)
Assay type: binding

MYEEFKAED
binding affinity to RBD of S protein, in words: extremely weak binder
